The source of these data is US20160061841A1, “NRF2-BASED CANCER TREATMENT AND DETECTION METHODS AND USES” (CanBas Co., Ltd., priority 2014, published 2016).

“Also recorded” adds a separate entry of the source. Where no end group is shown, it is not given here. [ ]: non-standard residue; d: D form. dPhe(F5) = N[C@H](Cc1c(F)c(F)c(F)c(F)c1F)C(=O)O; dBpa = N[C@H](Cc1ccc(C(=O)c2ccccc2)cc1)C(=O)O; dCha = N[C@H](CC1CCCCC1)C(=O)O

For one assay, the system named is 14-3-3 protein. The note with it: cited from earlier work.
The subject of assay [1] is multiple kinases that phosphorylate CDC25C at Ser216. The note with it: cited from earlier work.
Assay [2] concerns H1437 Control (Ctrl)-shRNA and Nrf2-shRNA sub-lines. Nature of the assay: Cell cycle distribution after CDDP with or without CBP501 in H1437 Ctrl-shRNA and Nrf2-shRNA sub-lines. It is filed as cell-based, Human. The note with it: one hour treatment with CDDP with or without CBP501. On the procedure: Cell cycle distribution changes are detected by Flow-cytometry (n=4). The graphs at the left are from the sub-line established by introducing Control (Ctrl)-shRNA into the H1437. The graphs at the right are from the sub-line established by indtroducing Nrf2-shRNA into H1437. Upper graphs indicate the subGl population. Lower graphs indicate the G2-M population. An asterisk indicates statistical significance (TTEST; p<0.001). N.S.=not significant (p>0.01).
(§1) Cell cycle analysis. Cells were plated in 24-well plates and incubated for 24 hours. The cells were treated with or without CDDP plus or minus CBP501 at the indicated concentration for the indicated times. The cells were harvested and stained with Krishan's solution (0.1% sodium citrate, 50 μg/ml propidium iodide, 20 μg/ml RNase A, 0.5% NP-40). Stained cells were analyzed by FACSCalibur (Becton Dickinson, Franklin Lakes, N.J.) using CELLQuest software (Becton Dickinson).
Lentivirus infection. […] Lentivirus infection was performed according to manufacturer's instructions.
The effect of Nrf2 knock-down in the CBP501 insensitive cell line H1437 was investigated.

The target in a further assay is calmodulin (Homo sapiens, UniProt P0DP23). The note with it: cited from earlier work.
For a further assay, the system named is cancer cells. To be noted: cited from earlier work.
In another assay the test system is NCI-H1755. The assay can be described thus: CDDP-enhancing activity of CBP501, cell cycle distribution by flow-cytometry. It is filed as cell-based, Human. The note with it: 1 h co-exposure with CDDP. On the procedure: (§2) Cell culture and reagents. Human NSCLC cell lines were cultured in a variety of media, each supplemented with 10% fetal bovine serum (Invitrogen, San Diego, CA) at 37° C. with 5% CO2/air. The media used was RPMI1640 (Sigma-Aldrich, St. Louis, Mo.) for NCI-H1755, NCI-H2030, NCI-H1437, NCI-H2122, NCI-H2172, NCI-H2228, NCI-H1563, NCI-H1944, NCI-H1993, NCI-H1734, NCI-H1568, NCI-H2444, NCI-H2291, NCI-H2347, NCI-H1838, NCI-H1299, HCC827, NCI-H1975, NCI-H1155, NCI-H522 and NCI-H1703; RPMI1640 supplemented with 2mM L-glutamine (Invitrogen) for NCI-H727; RPMI1640 supplemented with 4.5 g/L D-glucose (Sigma-Aldrich), 10 mM HEPES (Sigma-Aldrich) and 1 mM sodium pyruvate (Sigma-Aldrich) for NCI-H358, NCI-H520, NCI-H23, NCI-H647 and NCI-H838; Ham's F12K (Sigma-Aldrich) for A549. CDDP was purchased from Sigma-Aldrich. Sulforaphane (SFN) was purchased from Sigma-Aldrich. All NSCLC cell lines were purchased from ATCC and STR analysis had been performed by ATCC to authenticate the identity of each cell line. All cell lines were used within three months after thawing.
as §1
(§3) Here, the change in the cell cycle distribution, as indicated by flow-cytometry, was used to estimate the sensitivity of NSCLC cell lines to CBP501-enhanced cytotoxicity to CDDP. Such changes were monitored in cells treated with CDDP in the presence or absence of CBP501. The utility of this analysis for assessing the effectiveness of anti-cancer therapy is based on the absence of functioning G1/S checkpoint regulation in the cell cycle of many types of cancer cells (14). Lack of a functional G1/S checkpoint leads to an accumulation of cancer cells in G2/M phase upon their exposure to DNA-damaging anticancer agents (14, 15).
(§4) To assess the CDDP-enhancing activity of CBP501, one can examine either of two dose-response curves in which the X-axis indicates the dose of CDDP and Y-axis indicates either the number of cells in subG1 or in G2/M. The transition and peak in either dose-response curve will shift to the left in the presence of CBP501 for CBP501-sensitive cells, indicating the enhanced ability of CDDP to change the cell cycle distribution. […] Using this criterion based on CBP501's ability to shift the CDDP-induced subG1 or G2/M dose-response curve, twelve NSCLC cell lines were classified as being either, CBP501-sensitive or CBP501-insensitive. Cell lines that shifted the curve two fold or more were classified as CBP501 sensitive cells and those that shifted the curve less than two fold were classified as CBP501 insensitive (Table 1). Classification of CBP501 sensitivity in NSCLC cell lines.
(§5) Although the expression of Nrf2 or its several downstream transcription targets may possibly predict resistance to CBP501, the general reliability of these predictive markers for CBP501-sensitivity remained to be established. The combination effect of CBP501 and CDDP in sixteen additional NSCLC cell lines, classifying each as CBP501 sensitive or insensitive by the prior criteria was analyzed (Table 2). Classification of CBP501 sensitivity in additional NSCLC cell lines.

The subject of the next assay is NCI-H1975. Described as above. The assay is classed as cell-based, Human. The note with it: 1 h co-exposure with CDDP. The protocol: as §2, §1, §3, §4, §5
The next assay deals with NCI-H522. Described as above. It is filed as cell-based, Human. The note with it: 1 h co-exposure with CDDP. On the procedure: as §2, §1, §3, §4, §5
Another assay concerns NCI-H1155. Described as above. The assay is classed as cell-based, Human. The note with it: 1 h co-exposure with CDDP. On the procedure:
as §2, §1, §3, §4, §5

In the next assay the test system is NCI-H23. Described as above. It is filed as cell-based, Human. The note with it: 1 h co-exposure with CDDP, shift of subG1 or G2/M dose-response curve. The protocol: as §2, §1, §3, §4, §5
In a further assay the test system is NCI-H520. The assay is described as above. It is filed as cell-based, Human. To be noted: 1 h co-exposure with CDDP. The protocol:
as §2, §1, §3, §4, §5

The next assay concerns NCI-H1993. Described as above. It is filed as cell-based, Human. To be noted: 1 h co-exposure with CDDP, shift of subG1 or G2/M dose-response curve. On the procedure:
as §2, §1, §3, §4, §5

The next assay deals with NCI-H1734. The assay is described as above. The assay is classed as cell-based, Human. The note with it: 1 h co-exposure with CDDP. The protocol: as §2, §1, §3, §4, §5
The mark [3] stands for this setting: shift of subG1 or G2/M dose-response curve.

In the case of “(d-Bpa)(d-Ser)(d-Trp)(d-Ser)(d-Phe-2,3,4,5,6-F)(d-Cha)(d-Arg)(d-Arg)(d-Arg)(d-Gln)(d-Arg)(d-Arg) ([dBpa][dS][dW][dS][dPhe(F5)][dCha][dR][dR][dR][dQ][dR][dR]) [CBP501, anti-cancer drug candidate; calmodulin modulation and G2 checkpoint abrogation]”, the “Binding to 14-3-3 protein” value in the assay on 14-3-3 protein is given as “binds directly to 14-3-3 protein”. For the same substance, in assay [1], the “Inhibition of kinases that phosphorylate CDC25C at Ser216” value is “inhibits multiple kinases that phosphorylate CDC25C at Ser216”. For the same substance, the “Effect of CBP501 on CDDP-induced changes in cell cycle distribution (subG1, G2-M)” value in [2] (H1437 Nrf2 knock-down) was “increase the effects of CDDP on changes in the cell cycle distribution of subG1 and G2-M; also recorded: increases CBP501 sensitivity”; in assay [2] (H1437 control shRNA), “no difference in CDDP activity with or without CBP501”. For the same substance, the Interaction with calmodulin result in the assay with calmodulin was “direct interaction”. Further, in the assay on cancer cells, the “Phosphorylation of CDC25C at Ser216” value is “attenuates phosphorylation of CDC25C at Ser216”. For the same substance, the “Accumulation of cancer cells at G2/M” value in the assay on cancer cells (lengthy combined exposure with CDDP or bleomycin (BLM)) is reported as “reduces the accumulation of cancer cells at G2/M”. For the same substance, the “Definition of CBP501 sensitivity” value in the assay with NCI-H1755 is recorded as “Insensitive (those that shifted the curve less than two fold were classified as CBP501 insensitive)”; in the assay with NCI-H1975 it was “Sensitive (Cell lines that shifted the curve two fold or more were classified as CBP501 sensitive cells)”; in the assay with NCI-H522, “Sensitive (Cell lines that shifted the curve two fold or more were classified as CBP501 sensitive cells)”; in the assay on NCI-H1155 it was “Insensitive (those that shifted the curve less than two fold were classified as CBP501 insensitive)”; in the assay on NCI-H520, “Sensitive (Cell lines that shifted the curve two fold or more were classified as CBP501 sensitive cells)”; in the assay with NCI-H1734, “Sensitive (Cell lines that shifted the curve two fold or more were classified as CBP501 sensitive cells)”. In addition, the “Folds increase of CDDP effect by CBP501” value is recorded as 1 fold in the assay with NCI-H1755 (setting [3]); 2 fold in the assay on NCI-H1975 (setting [3]); 2 fold in the assay with NCI-H522 (setting [3]); 1.5 fold with NCI-H1155 (setting [3]); 4 fold with NCI-H23; 2 fold with NCI-H520 (setting [3]). The “Folds increase of CDDP effect by CBP501” value in the assay on NCI-H1993 and in the assay on NCI-H1734 (setting [3]) was 2 fold throughout.
